pKi: −log10 of the molar value. Where a name gives a salt, the structure may show the parent alone.
Experiments:
Cloned cathepsin S = target: T1, Cloned cathepsin S (Homo sapiens, UniProt P25774); experiment: Inhibition of cathepsin S, Z-Val-Val-Arg-AMC fluorescence progress curves; format: biochemical
T1 construct: made in house
Procedure: Stock solutions of the various inhibitors (10 mM) were made in DMF; dilutions were made in the same solvent. Cloned cathepsin S, (see Bromme et al., J. Biol. Chem. 268(&): 4832-4838 (1993)) was less than 1 nM in the assay. The assay buffer contained 100 mM phosphate at pH 6.5, 0.01% Triton, 2.5 mM dithiothreitol (DTT), and 2.5 mM ethylenediaminetetraacetic acid (EDTA). The substrate for cathepsin S was 10 μM Z-Val-Val-Arg-AMC (carbobenzyloxyvalinylvalinylarginylaminomethylcoumarin). The assays were initiated at 25° C. by addition of enzyme to 2 mL of assay buffer containing the substrate and the various inhibitors (30-0.001 μM). The increase in fluorescence at 460 nm with excitation at 380 nm was followed with time. Inactivation of cathepsin S was indicated by a downward curve in the increase in fluorescence with time. In the absence of inhibitors, the enzymatic production of free AMC was linear throughout the time course of inactivation examined. Data points were collected over at least 3 half-times of inactivation. The inhibition progress curves were analyzed using non-linear curve fitting software to compute the kobs values. Approximate second-order inactivation constants (kobs /[I]) were calculated for all compounds. For selected inhibitors, plots of 1/[I] vs. 1/kobs yielded the true constants kirr, KI, and kirr /KI, and were corrected for the presence of substrate by dividing KI (app.) by {1+[S]/Km}.

calpain = experiment: Inhibition (inactivation) of calpain, Suc-Leu-Tyr-AMC; format: biochemical; settings: pH 7.5, 5 mM CaCl2, 25° C.; for k/KI (kirr/KI): values without asterisk; for kobs /[I]*: values marked * (or %)
Procedure: The inhibitors were tested against calpain at 1 or 2% as for the other enzymes. The reaction conditions were 50 mM Tris, pH 7.5, 5 mM CaCl2, 2.5 mM DTT, assayed at 25° C. The substrate was 100 μM Suc-Leu-Tyr-AMC.

[1] = target: T2, Cathepsin B from human placenta (Homo sapiens, UniProt P07858); experiment: Inhibition of cathepsin B, Z-Arg-Arg-AMC fluorescence progress curves; format: biochemical; settings: for k/KI (kirr/KI): values without asterisk
T2 construct: Cathepsin B from human placenta, obtained from Sigma; purchased Sigma; host or cells: human placenta (tissue)
Procedure: Stock solutions of the various inhibitors (10 mM) were made in DMF; dilutions were made in the same solvent. Cathepsin B from human placenta, obtained from Sigma, was approximately 10 nM in the assay. The assay buffer contained 50 mM phosphate at pH 6.2, 2.5 mM dithiothreitol (DTT), and 2.5 mM ethylenediaminetetraacetic acid (EDTA). The substrate for cathepsin B was 50 μM Z-Arg-Arg-AMC (carbobenzyloxyarginylarginylaminomethylcoumarin). The assays were initiated at 25° C. by addition of enzyme to 2 mL of assay buffer containing the substrate and the various inhibitors (30-0.001 (μM). The increase in fluorescence at 460 nm with excitation at 380 nm was followed with time, and the assay was linear throughout the range observed. Inactivation of cathepsin B was indicated by a downward curve in the increase in fluorescence with time. In the absence of inhibitors, the enzymatic production of free AMC was linear throughout the time course of inactivation examined. Data points were collected over at least 3 half-times of inactivation, and in duplicate. The inhibition progress curves were analyzed using non-linear curve fitting software to compute the kobs values. Approximate second-order inactivation constants (kobs /[I]) were calculated for all compounds. For selected inhibitors, plots of 1/[I] vs. 1/kobs yielded the true constants kirr, KI, and kirr /KI, and were corrected for the presence of substrate by dividing KI (app.) by {1+[S]/Km }.

cruzain, from T. cruzi = cruzain, from T. cruzi (Trypanosoma cruzi, UniProt P25779); experiment: Inhibition of cruzain, as for cathepsin L; format: biochemical; settings: for kobs /[I]* (approximate second-order inactivation constant) / kinact/KI: values marked *; for k/KI (kirr/KI): values without asterisk; for kinact/KI: pH 6.2, read-out: kobs /[I]* (approximate second-order inactivation constant)
Procedure: (§1) Stock solutions of the various inhibitors (10 mM) were made in DMF; dilutions were made in the same solvent. Cathepsin L from rat liver, (see Mason et al., Biochem. J. 226:233-241 (1985)) was approximately 1 nM in the assay. The assay buffer contained 50 mM phosphate at pH 6:2, 2.5 mM dithiothreitol (DTT), and 2.5 mM ethylenediaminetetraacetic acid (EDTA). The substrate for cathepsin L was 5 μM Z-Phe-Arg-AMC (carbobenzyloxyphenylalanylarginylaminomethylcoumarin). The assays were initiated at 25° C. by addition of enzyme to 2 mL of assay buffer containing the substrate and the various inhibitors (30-0.001 μM). The increase in fluorescence at 460 nm with excitation at 380 nm was followed with time. Inactivation of cathepsin L was indicated by a downward curve in the increase in fluorescence with time. In the absence of inhibitors, the enzymatic production of free AMC was linear throughout the time course of inactivation examined. Data points were collected over at least 3 half-times of inactivation. The inhibition progress curves were analyzed using non-linear curve fitting software to compute the kobs values. Approximate second-order inactivation constants (kobs /[I]) were calculated for all compounds. For selected inhibitors, plots of 1/[I] vs. 1/kobs yielded the true constants kirr, KI, and kirr/KI and were corrected for the presence of substrate by dividing KI (app.) by (1+[S]/Km).
Inhibition of cruzain, from T. cruzi, (see Eakin et at., J. Biol. Chem. 268(9): 6115-6118 (1993)) proceeded exactly as for cathepsin L, outlined above, using an enzyme concentration of 1 nM.

[2] = target: T3, Cathepsin L from rat liver (Rattus norvegicus, UniProt P07154); experiment: Inhibition of cathepsin L, Z-Phe-Arg-AMC fluorescence progress curves; format: biochemical; settings: for k/KI (kirr/KI): values without asterisk
T3 construct: Cathepsin L from rat liver; from tissue; host or cells: rat liver
Procedure: as §1

[3] = system: Leishmania donovani amastigote infected mouse peritoneal macrophages; experiment: In vitro antiprotozoal activity, Leishmania donovani; format: cell-based
Procedure: (§2) In this table, the in vitro antiprotozoal activities of the indicated compounds were measured as percentage inhibition of Leishmania donovani amastigote infecteda mouse peritoneal macrophages, Trypanosoma cruzi amastigote infected macrophages, and Trypanosoma brucei extracellular bloodstream forms.

[4] = system: Trypanosoma cruzi amastigote infected macrophages; experiment: In vitro antiprotozoal activity, Trypanosoma cruzi; format: cell-based
Procedure: as §2

[5] = system: Trypanosoma brucei extracellular bloodstream forms; experiment: In vitro antiprotozoal activity, Trypanosoma brucei; format: cell-based
Procedure: as §2

[6] = system: human malarial parasite Plasmodium falciparum; experiment: In vitro protease activity of malarial parasite, substrate Z-Phe-Arg-AMC; format: biochemical; settings: cells printed in μM; read-out: P. falciparum IC50 (human)
From the text: The following table summarizes the comparative IC50 values for selected cysteine protease inhibitors against the human malarial parasite Plasmodium falciparum and the mouse malarial parasite Plasmodium vinckei. The substrate used to measure in vitro protease activity was Z-Phe-Arg-AMC.

T3 sequence (P07154 114-288 limits assumed): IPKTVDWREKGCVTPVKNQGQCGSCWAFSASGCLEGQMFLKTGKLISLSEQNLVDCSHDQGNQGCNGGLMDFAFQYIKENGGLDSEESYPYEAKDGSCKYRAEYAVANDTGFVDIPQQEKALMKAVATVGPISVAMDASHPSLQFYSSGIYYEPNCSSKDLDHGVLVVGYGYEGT
T3 sequence (P07154 291-334 limits assumed): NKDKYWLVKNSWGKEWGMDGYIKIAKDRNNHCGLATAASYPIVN
T1 sequence (P25774 115-331): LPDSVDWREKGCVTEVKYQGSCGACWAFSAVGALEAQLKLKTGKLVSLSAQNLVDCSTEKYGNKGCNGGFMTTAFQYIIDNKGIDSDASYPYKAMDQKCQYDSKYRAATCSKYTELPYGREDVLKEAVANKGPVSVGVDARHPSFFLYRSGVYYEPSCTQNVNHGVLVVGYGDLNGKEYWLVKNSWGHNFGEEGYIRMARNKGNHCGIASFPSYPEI
Sequence of cruzain, from T. cruzi (P25779 123-337 limits assumed): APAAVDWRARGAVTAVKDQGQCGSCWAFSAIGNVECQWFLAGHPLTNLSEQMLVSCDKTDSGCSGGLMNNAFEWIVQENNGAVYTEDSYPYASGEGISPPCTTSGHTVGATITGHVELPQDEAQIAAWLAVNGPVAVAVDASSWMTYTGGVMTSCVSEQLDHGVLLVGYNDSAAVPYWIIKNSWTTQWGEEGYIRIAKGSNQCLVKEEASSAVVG

## CC(Cc1ccccc1)(NC(=O)N1CCOCC1)C(=O)N[C@H](/C=C/S(=O)(=O)c1ccccc1)CCc1ccccc1 (mixture of isomers) [Mu-DL-Fam-HphVSPh]
Cloned cathepsin S
  kirr: 0.54 s⁻¹
Cloned cathepsin S; corrected for substrate
  pKi: 4.85
Cloned cathepsin S; values without asterisk, 25° C., pH 6.5
  k/KI (kirr/KI): 39,000 M^-1 sec^-1
calpain
  k/KI (kirr/KI): 0 M⁻¹ s⁻¹
[1]; corrected for substrate
  KI: binds
[1]; 25° C., pH 6.2
  k/KI (kirr/KI): 0 M⁻¹ s⁻¹
cruzain, from T. cruzi
  kobs /[I]* (approximate second-order inactivation constant): 18,100 M^-1 sec^-1
[2]; corrected for substrate
  KI: binds
[2]; 25° C., pH 6.2
  k/KI (kirr/KI): 0 M⁻¹ s⁻¹

## CSCC[C@@H](/C=C/S(=O)(=O)c1ccccc1)NC(=O)[C@H](CC(C)C)NC(=O)[C@H](CC(C)C)NC(C)=O [Ac-Leu-Leu-MetVSPh, (S)-(E)-3-(acetylleucylleucyl)amino-1-phenylsulfonyl-6-thia-1-heptene]
calpain
  kobs /[I]*: 5,600 M^-1 sec^-1
[1]; 25° C., pH 6.2
  k/KI (kirr/KI): 0 M⁻¹ s⁻¹
cruzain, from T. cruzi
  k/KI (kirr/KI): 110,000 M^-1 sec^-1
[2]; 25° C., pH 6.2
  k/KI (kirr/KI): 880,000 M^-1 sec^-1

## CCCC[C@@H](/C=C/S(=O)(=O)c1ccccc1)NC(=O)[C@H](CC(C)C)NC(=O)[C@H](CC(C)C)NC(C)=O [Ac-Leu-Leu-NleVSPh, (S)-(E)-3-(acetylleucylleucyl)amino-1-phenylsulfonyl-1-heptene]
calpain
  kobs /[I]*: 6,900 M^-1 sec^-1
[1]; 25° C., pH 6.2
  k/KI (kirr/KI): 0 M⁻¹ s⁻¹
cruzain, from T. cruzi
  k/KI (kirr/KI): 133,000 M^-1 sec^-1
[2]; 25° C., pH 6.2
  k/KI (kirr/KI): 930,000 M^-1 sec^-1

## CC(=O)N[C@@H](Cc1ccc(O)cc1)C(=O)N[C@H](C(=O)N[C@@H](C)C(=O)NC(/C=C/S(=O)(=O)c1ccccc1)CC(=O)O)C(C)C (stereo partly drawn) [Ac-Tyr-Val-Ala-AspVSPh, (e)-3-acetyltyrosylvalylalanylamino-4-hydroxycarbonyl-1-phenylsulfonyl-1-butene]
calpain
  k/KI (kirr/KI): 0 M⁻¹ s⁻¹
cruzain, from T. cruzi
  k/KI (kirr/KI): 0 M⁻¹ s⁻¹
[2]; 25° C., pH 6.2
  k/KI (kirr/KI): 0 M⁻¹ s⁻¹

## CC(C)(C)OC(=O)C[C@@H](/C=C/S(C)(=O)=O)NC(=O)OC(C)(C)C [Boc-Asp(O-tBu)VSMe, (S)-(E)-3-tert-butoxycarbonylamino-4-tert-butoxycarbonyl-1-methylsulfonyl-1-butene]
calpain
  k/KI (kirr/KI): 0 M⁻¹ s⁻¹
[1]; 25° C., pH 6.2
  k/KI (kirr/KI): 0 M⁻¹ s⁻¹
[3]; Leishmania donovani, Peritoneal macrophage, 3 uM, read-out: percentage inhibition, L. donovani
  inhibition at 3 µM: 0%
[3]; Leishmania donovani, Peritoneal macrophage, 10 uM, read-out: percentage inhibition, L. donovani
  inhibition at 10 µM: 0%
[3]; Leishmania donovani, Peritoneal macrophage, 30 uM, read-out: percentage inhibition, L. donovani
  inhibition at 30 µM: 13.4%
[3]; Leishmania donovani, Peritoneal macrophage, 90 uM, read-out: percentage inhibition, L. donovani
  inhibition at 90 µM: 12.9%
[4]; Trypanosoma cruzi, Macrophage, 3 uM, read-out: percentage inhibition, T. cruzi
  inhibition at 3 µM: 0%
[4]; Trypanosoma cruzi, Macrophage, 10 uM, read-out: percentage inhibition, T. cruzi
  inhibition at 10 µM: 0%
[4]; Trypanosoma cruzi, Macrophage, 30 uM, read-out: percentage inhibition, T. cruzi
  inhibition at 30 µM: 0%
[4]; Trypanosoma cruzi, Macrophage, 90 uM, read-out: percentage inhibition, T. cruzi
  inhibition at 90 µM: 9.9%
cruzain, from T. cruzi
  kinact/KI: 800 M⁻¹ s⁻¹
[5]; Trypanosoma brucei, 3 uM, read-out: percentage inhibition, T. brucei
  inhibition at 3 µM: 0%
[5]; Trypanosoma brucei, 10 uM, read-out: percentage inhibition, T. brucei
  inhibition at 10 µM: 0%
[5]; Trypanosoma brucei, 30 uM, read-out: percentage inhibition, T. brucei
  inhibition at 30 µM: 0%
[5]; Trypanosoma brucei, 90 uM, read-out: percentage inhibition, T. brucei
  inhibition at 90 µM: 0%
[2]; 25° C., pH 6.2
  k/KI (kirr/KI): 0 M⁻¹ s⁻¹

## CC(N)C(=O)NC(C=CS(C)(=O)=O)Cc1ccccc1 (stereo not drawn) [HCl.Ala-PheVSMe]
[6]
  IC50: > 100 µM

## Br.Br.N=C(N)NCCC[C@@H](/C=C/S(=O)(=O)c1ccccc1)NC(=O)[C@H](CCCNC(=N)N)NC(=O)N1CCOCC1 [Mu-Arg-ARgVSPh.2HBr, (S)-(E)-3-(4-morpholinecarbonylarginyl)amino-6-guanidino-1-phenylsulfonyl-1-hexene dihydrobromide]
calpain
  kobs /[I]*: < 50 M⁻¹ s⁻¹
[1]
  kirr: 0.040 s⁻¹
[1]; corrected for substrate
  pKi: 3.82
[1]; 25° C., pH 6.2
  k/KI (kirr/KI): 26 M⁻¹ s⁻¹
cruzain, from T. cruzi
  kobs /[I]* (approximate second-order inactivation constant): 2,100 M^-1 sec^-1

## CC(C)C[C@H](NC(=O)OCc1ccccc1)C(=O)N[C@@H](CC(C)C)C(=O)N[C@H](/C=C/S(=O)(=O)c1ccccc1)Cc1ccc(O)cc1 [Z-Leu-Leu-TyrVSPh, (S)-(E)-3-(benzyloxycarbonylleucylleucyl)amino-4-(4-hydroxyphenyl)-1-phenylsulfonyl-1-butene]
Cloned cathepsin S; values marked *, 25° C., pH 6.5, read-out: kobs /[I]* (approximate second-order inactivation constant)
  kinact/KI: 280000 M⁻¹ s⁻¹
calpain
  kobs /[I]*: 36,400 M^-1 sec^-1
  k/KI (kirr/KI): 24,300 M^-1 sec^-1
[1]; values marked *, 25° C., pH 6.2, read-out: kobs /[I]* (approximate second-order inactivation constant)
  kinact/KI: 730 M⁻¹ s⁻¹
cruzain, from T. cruzi
  kinact/KI: 45000 M⁻¹ s⁻¹

## (S)-(E)-3-(4-morpholinecarbonylphenylalanyl)amino-1-methylsulfonyl-1-butene [Mu-Phe-AlaVSMe]
[6]
  IC50: 20 µM
Cloned cathepsin S; values marked *, 25° C., pH 6.5
  kobs /[I]* (approximate second-order inactivation constant): 26,000 M^-1 sec^-1
calpain
  kobs /[I]*: < 50 M⁻¹ s⁻¹
[1]
  kirr: 0.19 s⁻¹
[1]; corrected for substrate
  pKi: ~3.00
[1]; 25° C., pH 6.2
  k/KI (kirr/KI): 300 M⁻¹ s⁻¹
[3]; 3 uM
  percentage inhibition, L. donovani: 0%
[3]; 10 uM
  percentage inhibition, L. donovani: 0%
[3]; 30 uM
  percentage inhibition, L. donovani: 0%
[3]; 90 uM
  percentage inhibition, L. donovani: 6.7%
[4]; 3 uM
  percentage inhibition, T. cruzi: 0%
[4]; 10 uM
  percentage inhibition, T. cruzi: 0%
[4]; 30 uM
  percentage inhibition, T. cruzi: 11.2%
[4]; 90 uM
  percentage inhibition, T. cruzi: 12.2%
cruzain, from T. cruzi
  kobs /[I]* (approximate second-order inactivation constant): 700 M⁻¹ s⁻¹
[5]; 3 uM
  percentage inhibition, T. brucei: 0%
[5]; 10 uM
  percentage inhibition, T. brucei: 0%
[5]; 30 uM
  percentage inhibition, T. brucei: 0%
[5]; 90 uM
  percentage inhibition, T. brucei: 0%

## (S)-(E)-3-(4-morpholinecarbonylphenylalanyl)amino-1-methylsulfonyl-4-phenyl-1-butene [Mu-Phe-PheVSMe]
[6]
  IC50: 2 µM
calpain
  kobs /[I]*: 260 M⁻¹ s⁻¹
[2]; values marked *, 25° C., pH 6.2
  kobs /[I]* (approximate second-order inactivation constant): 100 M⁻¹ s⁻¹

From patent US6287840A (Axys Pharmaceuticals, Inc., priority 1999, dated 2001)
